Laboratory results published in patent US20260151467A1, “METHOD FOR TREATING CANCER” (THE CHILDREN'S MEDICAL CENTER CORPORATION, priority 2018, published 2026).

Assays:
CCRF-CEM cells = assay: Viable cell counts (trypan blue) of CCRF-CEM cells treated with asparaginase and other agents; type: cell-based, human; conditions: for effect on Wnt-induced sensitization to asparaginase: shRNA-transduced cells, rapamycin 1 nM, RAD001 10 nM, AZD2014 10 nM; for sensitization to asparaginase by isoform-selective GSK3 inhibitor: 8 days (FIG. 4a)
Protocol: (§1) Cells (25,000 per well) were seeded in 100 μl of complete growth medium in 96-well plates and incubated with chemotherapeutic agents or vehicle. T-ALL cells were split every 48 hours in a 1:5 ratio. Briefly, 20 μl of cells were mixed with 80 μl fresh culture medium, supplemented with vehicle or chemotherapeutic drugs at the indicated doses. AML cells were split every 72 hours as described above. Cell viability was assessed by counting viable cells based on trypan blue vital dye staining (Invitrogen), according to the manufacturer's instructions. Chemotherapeutic drugs included: PEG-asparaginase (“oncaspar”, Shire, Lexington, MA), dexamethasone (Sigma-Aldrich), vincristine (Selleckchem, Houston, TX), doxorubicin (Sigma-Aldrich), 6-mercaptopurine (Abcam, Cambridge, UK), CHIR99021 (Selleckchem), bortezomib (Selleckchem), rapamycin (Selleckchem), RAD001 (Selleckchem), AZD2014 (Selleckchem), and Wnt3A (R&D systems, Minneapolis, MN). BRD0705 and […] were synthesized as described^15. Caspase 3/7 activity was assessed using the Caspase Glo 3/7 Assay (Promega, Madison, WI) according to the manufacturer's instructions.

[1] = test system: asparaginase-resistant T-ALL patient-derived xenograft; assay: T-ALL patient-derived xenograft in NRG mice, survival; type: in vivo, mouse
Protocol: Mice were exposed to a sub-lethal dose of radiation (4.5 Gy) and subsequently injected with human leukemia cells. All injections were performed by tail vein injection. Blood collections were performed to monitor leukemia onset in mice injected with leukemic cells, which was assessed by staining for human CD45 expression using anti-human CD45-PE-Cy7 (1:400, BD #560915) antibody staining. As soon as leukemia engraftment was confirmed based on ≥5% human leukemia cells in the peripheral blood, treatment of mice was begun. Asparaginase (1,000 U/kg) or PBS were injected by tail vein injection as a single dose on day 1 of drug treatment, and BRD0705 (15 mg/kg) or vehicle were given every 12 hours for 12 days by oral gavage. Vehicle was formulated as previously described.^15 Mice were anesthetized with isoflurane (Patterson Veterinary, Greeley, CO) prior to gavage. After start of treatment, body weight was monitored every third day. To assess bilirubin levels, mandibular blood vein collection was performed, and bilirubin levels were measured in the Boston Children's Hospital clinical laboratory. The primary endpoint of this experiment was survival. Mice were euthanized as soon as they developed weight loss greater than 15% or signs/symptoms of progressing disease. Post-mortem analysis of leukemic burden was performed by extracting bone marrow cells, which were filtered through a […] mesh filter and red blood cells were lysed using the BD Biosciences Red Blood Cell Lysis reagent (BD #555899). Isolated bone marrow cells were stained for assessment of leukemic burden using following antibodies from BD Biosciences: Anti-human CD4-APC-Cy7 (1:100, BD #561839) and anti-human CD8-PerCP-Cy5.5 (1:100, BD #560662).

HCT-15 cells = assay: Chemotherapy response of colon cancer cell lines (trypan blue counts), HCT-15; type: cell-based, human; conditions: 10 days; Rspondin3 75 ng/ml and Wnt3a 100 ng/ml; inhibitors 1 μM
Protocol: (§2) Cells (100,000 per well) were seeded in […] of complete growth medium in 12-well plates and incubated with chemotherapeutic agents or vehicle. Cells were split every 48 hours and cell viability was assessed by counting viable cells based on trypan blue vital dye staining (Invitrogen), according to the manufacturer's instructions. Chemotherapeutic drugs included: asparaginase (pegaspargase, Shire, Lexington, MA), CHIR99021 (Selleckchem), recombinant human Wnt3A protein (R&D systems, Minneapolis, MN) and recombinant human R-Spondin 3 protein (R&D systems, Minneapolis, MN). BRD0705 and BRD3731 were synthesized as described (Wagner et al., 2018). Caspase 3/7 activity was assessed using the Caspase Glo 3/7 Assay (Promega, Madison, WI) according to the manufacturer's instructions.

SW-480 cells = assay: Chemotherapy response of colon cancer cell lines (trypan blue counts), SW-480; type: cell-based, human; conditions: 10 days; Rspondin3 75 ng/ml and Wnt3a 100 ng/ml; inhibitors 1 μM
Protocol: as §2

Apc-deficient organoids = assay: Chemotherapy response in mouse intestinal organoids, Apc-deficient; type: cell-based; conditions: asparaginase 100 U/L, BRD0705 1 μM or both, 10 days
Protocol: For assessment of chemotherapy response in mouse intestinal organoids, Apc-deficient and Rspo3 fusion organoids were cultured in basal organoid medium (medium not containing murine Wnt3A, murine Noggin and human R-spondin1 protein). A full 0.95 cm2 well of organoids was split into new wells, aiming to obtain approximately 25 organoids per well. Organoids were split according to previously published protocols (O'Rourke et al., 2016). Matrigel and basal organoid culture medium were supplemented with vehicle or chemotherapeutic agents, and split every 48 hours. After 10 days in culture, total organoid numbers per wells were counted by light microscopy. Microscopy was performed using an 100× objective on an Axio Imager A1 microscope (Zeiss, Oberkochen, Germany), with images captured using a CV-A10 digital camera (Jai, Yokohama, Japan) and Cytovision software (Leica Biosystems, Wetzlar, Germany).
Organoids touching the edge of a well were excluded from counting. Images were taken from a representative of three independent experiments and analyzed with ImageJ Software (Schneider et al., 2012).

[2] = test system: APC-mutant CRC patient-derived xenograft; assay: APC-mutant human CRC patient-derived xenograft in nude mice; type: in vivo, mouse; conditions: asparaginase 1000 U/kg×1 dose; BRD0705 every 12 hours×21 days
Protocol: For implantation of APC mutant human CRC PDX, patient tumor material was collected in PBS and kept on wet ice for engraftment within 24 h after resection. Upon arrival, necrotic and supporting tissues were carefully removed using a surgical blade. Approximately 1 mm×1 mm tissue fragments were implanted subcutaneously into the flank region of male nude mice, as described (Bullman et al., 2017). For injection of intestinal organoids (Rspo3; p53; Kras, or Apc; p53; Kras), per mouse one full […] well of organoids was injected subcutaneously.
As soon as tumors reached a volume of approximately 150 mm3, treatment of mice was begun. […] Vehicle was formulated as previously described (Wagner et al., 2018).
After start of treatment, body weight and tumor size were evaluated every other day. Tumor size was assessed by caliper measurements and the approximate volume of the mass was calculated using the formula (l×w×w)×(π/6), where 1 is the major tumor axis and w is the minor tumor axis.

[3] = test system: T-ALL, acute myeloid leukemia and hypodiploid B-ALL cell lines; assay: Asparaginase sensitization across a panel of treatment-resistant acute leukemia cell lines (trypan blue counts); type: cell-based, human; conditions: CHIR99021 1 μM, 8 days
Protocol: as §1

[4] = test system: normal human CD34+ hematopoietic progenitors; assay: Viable cell counts of normal CD34+ hematopoietic progenitors; type: cell-based; conditions: CHIR99021 1 μM, day 4
Text: Cell lines and cell culture. 293T cells, T-ALL cell lines, AML cell lines and B-ALL cell lines were obtained from ATCC (Manassas, VA, USA), DSMZ (Braunschweig, Germany), the A. Thomas Look laboratory (Boston, MA, USA) or Alex Kentsis laboratory (New York, NY, USA) and cultured in DMEM, RPMI 1640 or MEM alpha (Thermo Fisher Scientific) with 10% or 20% fetal bovine serum (FBS, Sigma-Aldrich, Saint Louis, MO) or TET system approved FBS (Clontech, Mountain View, CA) and 1% penicillin/streptomycin (Thermo Fisher Scientific) at 37° C., 5% CO2. Human CD34+ progenitor cells from mobilized peripheral blood of healthy donors were obtained from Fred Hutchinson Cancer Research Center (Seattle, WA, USA) (e.g., found on the world wide web at sharedresources.fredhutch.org/products/cd34-cells). […]
Cells (25,000 per well) were seeded in 100 μl of complete growth medium in 96-well plates and incubated with chemotherapeutic agents or vehicle. […] Cell viability was assessed by counting viable cells based on trypan blue vital dye staining (Invitrogen), according to the manufacturer's instructions. […] Caspase 3/7 activity was assessed using the Caspase Glo 3/7 Assay (Promega, Madison, WI) according to the manufacturer's instructions.

CCD-841 cells = assay: Viable cell counts of normal colonic epithelium cells; type: cell-based, human; conditions: CHIR99021 1 μM, 10 days
Protocol: as §2

## CNC(=O)c1cccc(-c2ccc3c(N4CCOC[C@@H]4C)nc(N4CCOC[C@@H]4C)nc3n2)c1 [AZD2014]
CCRF-CEM cells; 8 days
  effect on Wnt-induced sensitization to asparaginase: had no effect

## CC[C@@]1(c2ccccc2)C2=C(CC(C)(C)CC2=O)Nc2[nH]ncc21 [BRD0705]
CCRF-CEM cells
  sensitization to asparaginase by isoform-selective GSK3 inhibitor: effectively sensitizes
[1]; FIG. 4D, Kaplan-Meier
  difference in survival between vehicle and monotherapy groups (log-rank): not significant
[1]; asparaginase 1,000 U/kg i.v. single dose, BRD0705 15 mg/kg oral gavage every 12 hours for 12 days
  efficacy against xenograft (survival): highly resistant
HCT-15 cells
  sensitization to asparaginase: sensitized
SW-480 cells
  sensitization to asparaginase: sensitized
Apc-deficient organoids
  toxicity to organoids (viable organoid count): little toxicity
[2]
  activity on tumor growth: no activity

## CC(C)(C)Cc1[nH]nc2c1[C@](C)(c1ccccc1)C1=C(CC(C)(C)CC1=O)N2 [BRD3731]
CCRF-CEM cells
  sensitization to asparaginase by isoform-selective GSK3 inhibitor: only modest effects
HCT-15 cells
  sensitization to asparaginase: had little effect
SW-480 cells
  sensitization to asparaginase: had little effect

## Cc1c[nH]c(-c2cnc(NCCNc3ccc(C#N)cn3)nc2-c2ccc(Cl)cc2Cl)n1 [CHIR99021]
CCRF-CEM cells; CHIR99021 1 μM, 8 days, vincristine, 6-mercaptopurine, dexamethasone, doxorubicin
  sensitization to other antileukemic drugs: Nor did it sensitize leukemic cells to other commonly used antileukemic drugs
[3]
  asparaginase sensitization: induced significant asparaginase sensitization
[4]
  toxicity of asparaginase to normal progenitors with GSK3 inhibitor: did not increase the toxicity of asparaginase
HCT-15 cells
  sensitization to asparaginase: sufficient to induce asparaginase sensitization
SW-480 cells
  sensitization to asparaginase: sufficient to induce asparaginase sensitization
CCD-841 cells
  toxicity of GSK3 inhibition combined with asparaginase to normal colonic cells: little toxicity

## CO[C@H]1C[C@@H]2CC[C@@H](C)[C@@](O)(O2)C(=O)C(=O)N2CCCC[C@H]2C(=O)O[C@H]([C@H](C)C[C@@H]2CC[C@@H](OCCO)[C@H](OC)C2)CC(=O)[C@H](C)/C=C(\C)[C@@H](O)[C@@H](OC)C(=O)[C@H](C)C[C@H](C)/C=C/C=C/C=C/1C [RAD001]
CCRF-CEM cells; 8 days
  effect on Wnt-induced sensitization to asparaginase: had no effect

## CC(C)C[C@H](NC(=O)[C@H](Cc1ccccc1)NC(=O)c1cnccn1)B(O)O [bortezomib]
CCRF-CEM cells; 10 nM dose
  single-agent toxicity: lacked single-agent toxicity
CCRF-CEM cells; bortezomib 10 nM, 8 days
  sensitization to asparaginase by proteasome inhibition: phenocopied Wnt-induced sensitization to asparaginase
CCRF-CEM cells; indicated doses, 48 hours (FIG. 10)
  toxicity (viability), dose range: highly toxic at intermediate doses

B1: Wnt3A: Wnt ligand, recombinant protein (R&D systems) (protein, UniProt P56704 19-352, looked up)
Protein Wnt-3a: SYPIWWSLAVGPQYSSLGSQPILCASIPGLVPKQLRFCRNYVEIMPSVAEGIKIGIQECQHQFRGRRWNCTTVHDSLAIFGPVLDKATRESAFVHAIASAGVAFAVTRSCAEGTAAICGCSSRHQGSPGKGWKWGGCSEDIEFGGMVSREFADARENRPDARSAMNRHNNEAGRQAIASHMHLKCKCHGLSGSCEVKTCWWSQPDFRAIGDFLKDKYDSASEMVVEKHRESRGWVETLRPRYTYFKVPTERDLVYYEASPNFCEPNPETGSFGTRDRTCNVSSHGIDGCDLLCCGRGHNARAERRREKCRCVFHWCCYVSCQECTRVYDVHTCK
CCRF-CEM cells; 100 ng/ml Wnt3A, 8 days
  sensitization to asparaginase by Wnt ligand: phenocopied
